Measured values from PubChem BioAssay (NCI).
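In this assay, cells in 96-well plates receive the compound at five concentrations for 48 hours. Endpoints are linearly interpolated between the surrounding concentrations. At the GI50, growth is halved. TGI is the concentration that stops growth completely.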

How the values were obtained:
Assay in all cases: growth of human tumour cells (NCI), 48 h
M14 melanoma = test system: M14 melanoma
CAKI-1 renal = test system: CAKI-1 renal
SK-MEL-5 melanoma = test system: SK-MEL-5 melanoma
UACC-62 melanoma = test system: UACC-62 melanoma
NCI-H226 lung = test system: NCI-H226 lung
SK-MEL-2 melanoma = test system: SK-MEL-2 melanoma
IGROV1 ovarian = test system: IGROV1 ovarian
SW-620 colon = test system: SW-620 colon
MOLT-4 leukemia = test system: MOLT-4 leukemia
CCRF-CEM leukemia = test system: CCRF-CEM leukemia
OVCAR-8 ovarian = test system: OVCAR-8 ovarian
NCI/ADR-RES ovarian = test system: NCI/ADR-RES ovarian

| SMILES | TGI (M14 melanoma) | TGI (CAKI-1 renal) | TGI (SK-MEL-5 melanoma) | TGI (UACC-62 melanoma) | TGI (NCI-H226 lung) | TGI (SK-MEL-2 melanoma) | TGI (IGROV1 ovarian) | TGI (SW-620 colon) | TGI (MOLT-4 leukemia) | TGI (CCRF-CEM leukemia) | TGI (OVCAR-8 ovarian) | TGI (NCI/ADR-RES ovarian) | GI50 (M14 melanoma) | GI50 (SK-MEL-5 melanoma) | GI50 (NCI-H226 lung) | GI50 (SK-MEL-2 melanoma) | GI50 (OVCAR-8 ovarian) | GI50 (SW-620 colon) | GI50 (CCRF-CEM leukemia) | GI50 (NCI/ADR-RES ovarian) |
| --- | --- | --- | --- | --- | --- | --- | --- | --- | --- | --- | --- | --- | --- | --- | --- | --- | --- | --- | --- | --- |
| O=c1ccc2nc3cc(Br)ccc3sc-2c1 | > 100 µM | > 100 µM | > 100 µM | > 100 µM | > 100 µM | > 100 µM | > 100 µM | > 100 µM | > 100 µM | 72.5 µM |  |  |  |  |  |  |  |  |  |  |
| O=C(CSc1nc2ccc([N+](=O)[O-])cc2s1)c1ccc2ccccc2c1 | > 100 µM | > 100 µM | > 100 µM | > 100 µM | > 100 µM | > 100 µM | > 100 µM | > 100 µM | > 100 µM | > 100 µM | > 100 µM | > 100 µM |  |  |  |  |  |  |  |  |
| COc1cc2oc(=O)ccc2cc1C(=O)CC(C)C | > 100 µM | 42.8 µM | > 100 µM | > 100 µM | > 100 µM | > 100 µM | > 100 µM | > 100 µM | > 100 µM | > 100 µM | > 100 µM | > 100 µM |  |  |  |  |  |  |  |  |
| CN(C)c1ccc(C=Nc2ccc(Oc3ccc(Cl)cc3)c(Cl)c2)cc1 | 87.1 µM | 67.2 µM | 33.4 µM | 36.1 µM | 63.4 µM | 37.4 µM | 85.1 µM | > 100 µM | 66.3 µM | 57.7 µM | 36.8 µM | 33.2 µM |  |  |  |  |  |  |  |  |
| CC(=O)OC1CC[C@@]2(C)C(=CC[C@@H]3[C@@H]2CC[C@]2(C)Nc4nn(S(C)(=O)=O)cc4C[C@@H]32)C1 (stereo partly specified) | 36.3 µM | > 100 µM | 28.4 µM | 50.2 µM | 92 µM | 58.8 µM | > 100 µM |  | 53.9 µM | 38.5 µM | > 100 µM | > 100 µM |  |  |  |  |  |  |  |  |
| Cn1cnc([N+](=O)[O-])c1Sc1nc(N)nc2c1ncn2C1OC(CO)C(O)C1O (stereo unspecified) | > 100 µM | > 100 µM | 25.7 µM | 22.7 µM | > 89.3 µM | 21.1 µM | > 82.1 µM | > 100 µM | > 100 µM | > 100 µM | > 100 µM | > 100 µM |  |  |  |  |  |  |  |  |
| Cn1c(=O)[nH]c2nncnc2c1=O |  | 46.5 µM | 177 µM | 146 µM | 28.7 µM | 312 µM | 133 µM | > 625 µM | > 625 µM | > 625 µM | > 62.5 µM | > 625 µM |  |  |  |  |  |  |  |  |
| OC(c1ccccc1)(c1ccccc1)c1nccc2ccccc12 | 49.9 µM | > 100 µM | 27 µM | > 100 µM |  |  | > 100 µM |  | 59.4 µM | 95.5 µM | > 100 µM | > 100 µM |  |  |  |  |  |  |  |  |
| O=C(O)c1ccc(C(=O)c2ccccc2C(=O)O)cc1C(=O)O | > 100 µM | > 100 µM | > 100 µM | > 100 µM | > 100 µM | > 100 µM | > 100 µM | > 100 µM | > 100 µM | > 100 µM | > 100 µM | > 100 µM |  |  |  |  |  |  |  |  |
| CC(C)(C)OC(=O)NC(CCCCNC(=O)OCc1ccccc1)C(=O)NCCNc1ccc(NCCNC(=O)C(CCCCNC(=O)OCc2ccccc2)NC(=O)OC(C)(C)C)c2c1C(=O)c1ccccc1C2=O (stereo unspecified) | > 100 µM | > 100 µM | > 100 µM | > 100 µM | > 100 µM | 20.5 µM | > 100 µM | > 100 µM | > 100 µM | > 100 µM | > 78.1 µM | > 100 µM |  |  |  |  |  |  |  |  |
| COc1ccc(C(=O)C2=NON3OC23C(=O)c2ccc(OC)cc2)cc1 (stereo unspecified) | 31 µM | 6.79 µM | 29.3 µM | 37 µM | 33.3 µM | 34.5 µM | 27.3 µM | 11.4 µM | > 21.9 µM |  | 21 µM |  |  |  |  |  |  |  |  |  |
| Cc1coc2c1C[C@@]1(C)[C@H](CCC[C@@H]1C)[C@H]2O | > 100 µM | > 100 µM | 28.9 µM | > 100 µM | 56 µM |  | 65.4 µM | > 100 µM | 59.7 µM | > 100 µM | > 100 µM | 68.3 µM |  |  |  |  |  |  |  |  |
| OCc1cn(C(c2ccccc2)(c2ccccc2)c2ccccc2)cn1 | > 100 µM | > 100 µM | > 100 µM |  | > 100 µM | > 100 µM | > 100 µM | > 100 µM | > 100 µM | > 100 µM | > 100 µM | > 100 µM |  |  |  |  |  |  |  |  |
| COc1nc2[nH]ccc2c(=O)[nH]1 | > 100 µM | > 100 µM | > 100 µM |  | 9.92 µM | > 100 µM | > 100 µM | > 100 µM | > 100 µM | > 100 µM | > 100 µM |  |  |  |  |  |  |  |  |  |
| N#CC12Cc3cc4c(cc3-c3cccc(c31)CCN2C(=O)c1ccccc1)OCO4 (stereo unspecified) | > 100 µM |  | > 100 µM | > 100 µM | > 100 µM | > 100 µM | > 100 µM | > 100 µM | > 100 µM | > 100 µM | > 100 µM |  |  |  |  |  |  |  |  |  |
| COCC1CCCN1c1ccc(C=N/C(C#N)=C(\N)C#N)cc1 (stereo unspecified) | > 100 µM |  | > 100 µM |  | > 100 µM | > 100 µM |  | > 100 µM |  | > 100 µM | > 100 µM | > 100 µM | > 100 µM | 98.2 µM | 4.68 µM | > 100 µM | 45.3 µM | > 100 µM | 3.22 µM | > 100 µM |
